According to patent publication US20080058318A1 (priority 2006, published 2008):
Where “and” joins values, the source holds several entries; their conditions need not be identical. Equal values may be shown once. Where a name gives a salt, the structure may show the parent alone.

How the values were obtained:
[1] = tested on: patients who meet the 1990 ACR criteria for fibromyalgia syndrome; experiment: Example 2 study: MASQ total score, 3-month treatment period; assay type: in vivo, human; set-up: MASQ total score, Actual, Mean / MASQ total score, Change from baseline, Mean / MASQ total score, Actual, Median / MASQ total score, Change from baseline, Median: scale not given here; settings: for MASQ total score change, Difference from Placebo / MASQ total score, Change from baseline, LS Mean (SE): 3-month (LOCF), ITT, ANCOVA model; for MASQ total score, Actual, Mean / MASQ total score, Actual, Median / MASQ total score, Change from baseline, Mean / MASQ total score, Change from baseline, Median: 3-month treatment period (LOCF), intent-to-treat
Protocol: This was a multicenter, randomized, double-blind, placebo-controlled three-arm study designed which enrolled 1196 patients who meet the 1990 ACR criteria for fibromyalgia syndrome (history of widespread pain and pain in 11 of 18 tender point sites on digital palpation), as well as the more detailed admission criteria outlined in the protocol.
All randomized medications (placebo and milnacipran) were administered twice a day (BID).
(iii) Additional Efficacy Measurements: The Fibromyalgia Impact Questionnaire (FIQ) total score and physical function, Beck Depression Inventory (BDI), the MOS-Sleep Index Scale, the Arizona Sexual Experiences Scale (ASEX), Patient pain 24 hour and 7 day recall VAS, the SF-36 individual domains, Patient Global Disease Status, Patient Global Therapeutic Benefit, the Multiple Ability Self-report Questionnaire (MASQ, cognitive function), the Multidimensional Health Assessment Questionnaire (MDHAQ), Multidimensional Fatigue Inventory (MFI), and diary assessments including current pain (morning, random daily, and evening reports); overall pain past week (weekly report), overall fatigue in the last week (weekly report), and the extent that pain kept the patient from caring for themselves (weekly report).

[2] = tested on: patients who met the 1990 ACR criteria for fibromyalgia syndrome; experiment: Example 1 study: composite responder analysis for pain of fibromyalgia (pain reduction plus PGIC); assay type: in vivo, human; settings: for Responders for the treatment of the pain of fibromyalgia, % = m/n: observed cases (OC), hydrochloride; for Responders for the treatment of the pain of fibromyalgia, m (number of responders): observed cases
Protocol: (§1) This was a multi-center, randomized, double-blinded, placebo-controlled three-arm study, which enrolled 888 patients who met the 1990 ACR criteria for fibromyalgia syndrome as well as the more detailed admission criteria outlined in the protocol.
(§2) All randomized medications (placebo and milnacipran) were administered in a split-dose (BID) fashion. The doses were administered in a dose escalation regimen as outlined below:
The primary endpoint of this study was a composite responder analysis implementing analysis of three domains of interest, evaluated at […]. The domains measured were:
1) pain (measured by an electronic diary as a daily recall pain score, calculated to weekly average scores)
2) patient global (measured by the PGIC, 1-7 scale)
For the primary analysis, the pain domain score was determined by a calculation that compared the average of treatment weeks 14 and 15 to the two baseline weeks, and treatment weeks 26 and 27 vs. baseline for the secondary analysis. The last observation was carried forward if neither the week 14 nor week 15 (or week 26/27) patient self-reported pain score is available to compare to the baseline value.
A responder was defined as a subject who experienced a greater than 30% reduction in pain from baseline and improvement on the PGIC.
See Table 1 for a summary of the results in the Intent-to-Treat Population and Table 2 for a summary of the Last Observation Carried Forward (LOCF), Baseline Observation Carried Forward (BOCF) and study completer (OC) populations. LOCF is an analysis in which observations are carried forward to the last time point for patients who dropped out. The LOCF analysis treats the carried-forward data as observed data at the last time point. BOCF is an analysis that requires that the patient remain active in the trial to be evaluated for response. If a patient withdraws from the trial for any reason they are classed as a non-responder irregardless of their pain and global scores at the time of withdrawal.

[3] = tested on: fibromyalgia patients; settings: cited from earlier work
[4] = tested on: patients who met the 1990 ACR criteria for fibromyalgia syndrome; experiment: Example 1 study: MASQ total score (cognitive function), change from baseline; assay type: in vivo, human; set-up: MASQ Total Score - Change from Baseline: scale not given here
Protocol: as §1, §2
d. FMS Status Assessments: Patient pain 24 hour and 7 day recall VAS, the SF-36, Multiple Ability Self-report Questionnaire (MAS Q, cognitive function), the Multidimensional Health Assessment Questionnaire (MDHAQ) and the Multidimensional Fatigue Inventory (MFI). Diary assessments include current pain (morning, random daily, and evening reports); daily recall pain (morning report); medications taken (evening report); overall pain past week (weekly report), overall fatigue in the last week (weekly report), and the extent that pain kept the patient from caring for themselves (weekly report).
The MASQ is a brief self-report questionnaire, which includes 5 cognitive domains: language ability, visuo-perceptual ability, verbal memory, visual memory, and attention/concentration (Seidenberg et al., J Clin & Exp Neuropsychology 1994; 16:93-104). The MASQ has been validated in both normal subjects and patient groups having cognitive difficulties in the assessment domains.

For CCN(CC)C(=O)C1(c2ccccc2)CC1CN (racemic) [milnacipran, Z-2-aminomethyl-1-phenyl-N,N-diethylcyclopropanecarboxamide hydrochloride], the “MASQ total score change, Difference from Placebo” value ([1]; 100 mg) was −1.13, the “MASQ total score, Change from baseline, LS Mean (SE)” value ([1]; 100 mg) was −3.93 (0.786) and the “MASQ total score, Actual, Mean” value ([1]; 100 mg) was 88.86. The “MASQ total score, Actual, Median” value ([1]; 100 mg) was 89.0, the “MASQ total score, Change from baseline, Mean” value ([1]; 100 mg) was −3.34 and the “MASQ total score, Change from baseline, Median” value ([1]; 100 mg) was −3.0. For the same compound, the “MASQ total score change, Difference from Placebo” value ([1]; 200 mg) was −1.12, the “MASQ total score, Change from baseline, LS Mean (SE)” value ([1]; 200 mg) was −4.51 (0.797) and the “MASQ total score, Actual, Mean” value ([1]; 200 mg) was 89.63. For the same compound, the “MASQ total score, Actual, Median” value ([1]; 200 mg) was 90.5, the “MASQ total score, Change from baseline, Mean” value ([1]; 200 mg) was −3.75 and the “MASQ total score, Change from baseline, Median” value ([1]; 200 mg) was −3.0. The “Responders for the treatment of the pain of fibromyalgia, % = m/n” value (shortened to “Responders for the treatment … % = m/n”) ([2]; 100 mg/day BID, treatment weeks 14-15 (3 month)) was 53.33% and 53.3%, the “Responders for the treatment … % = m/n” value ([2]; 100 mg/day BID, treatment weeks 14-15 (3 month), listed as Milnacipran) was 53.33% and the “Responders for the treatment … % = m/n” value ([2]; 100 mg/day BID, treatment weeks 26-27 (6 month)) was 49.59% and 49.6%. The “Responders for the treatment … % = m/n” value ([2]; 100 mg/day BID, treatment weeks 26-27 (6 month), listed as Milnacipran) was 49.59%, the “Long-term treatment of fibromyalgia and some of its symptoms, low dose compared with high dose” value ([2]; 100 mg/day vs 200 mg/day, continued administration) was “almost as effective as continued administration of high-dose milnacipran” and the “Responders for the treatment of the pain of fibromyalgia, m (number of responders)” value (from here on “Responders … (number of responders)”) ([2]; 100 mg/day, treatment weeks 14-15, n = 135) was 72. The “Responders … (number of responders)” value ([2]; 100 mg/day, treatment weeks 26-27, n = 121) was 60, the “Individual component responder rate, PGIC (LOCF)” value ([2]; 100 mg, 3 month) was 54.0% and the “Individual component responder rate, Pain (LOCF)” value ([2]; 100 mg, 3 month) was 35.7%. The “Pain composite responder rate, Sensitivity Analysis I (BOCF)” value (from here on “Pain composite responder rate … (BOCF)”) ([2]; 100 mg, 3 month) was 32.1%, the “Pain composite responder rate, Sensitivity Analysis II” value ([2]; 100 mg, 3 month) was 32.% and the “Pain composite responder rate, Sensitivity Analysis III” value ([2]; 100 mg, 3 month) was 32.1%. For the same compound, the “Pain composite responder rate, Primary Analysis (LOCF)” value ([2]; 100 mg, 3 month, N = 224) was 33.5%, the “Individual component responder rate, PGIC (LOCF)” value ([2]; 100 mg, 6 month) was 49.6% and the “Individual component responder rate, Pain (LOCF)” value ([2]; 100 mg, 6 month) was 35.7%. For the same compound, the “Pain composite responder rate … (BOCF)” value ([2]; 100 mg, 6 month) was 26.8%, the “Pain composite responder rate, Sensitivity Analysis II” value ([2]; 100 mg, 6 month) was 27.2% and the “Pain composite responder rate, Sensitivity Analysis III” value ([2]; 100 mg, 6 month) was 29.5%. For the same compound, the “Pain composite responder rate, Primary Analysis (LOCF)” value ([2]; 100 mg, 6 month, N = 224) was 30.8%, the “Responders for the treatment … % = m/n” value ([2]; 200 mg/day BID, treatment weeks 14-15 (3 month)) was 55.0% and the “Responders for the treatment … % = m/n” value ([2]; 200 mg/day BID, treatment weeks 14-15 (3 month), listed as Milnacipran) was 55.00%. For the same compound, the “Responders for the treatment … % = m/n” value ([2]; 200 mg/day BID, treatment weeks 26-27 (6 month)) was 51.74% and 51.7%, the “Responders for the treatment … % = m/n” value ([2]; 200 mg/day BID, treatment weeks 26-27 (6 month), listed as Milnacipran) was 51.74% and the “Responders … (number of responders)” value ([2]; 200 mg/day, treatment weeks 14-15, n = 260) was 143. The “Responders … (number of responders)” value ([2]; 200 mg/day, treatment weeks 26-27, n = 230) was 119, the “Individual component responder rate, PGIC (LOCF)” value ([2]; 200 mg, 3 month) was 50.6% and the “Individual component responder rate, Pain (LOCF)” value ([2]; 200 mg, 3 month) was 38.3%. The “Pain composite responder rate … (BOCF)” value ([2]; 200 mg, 3 month) was 32.4%, the “Pain composite responder rate, Sensitivity Analysis II” value ([2]; 200 mg, 3 month) was 32.7% and the “Pain composite responder rate, Sensitivity Analysis III” value ([2]; 200 mg, 3 month) was 32.4%. The “Pain composite responder rate, Primary Analysis (LOCF)” value ([2]; 200 mg, 3 month, N = 441) was 34.9%, the “Individual component responder rate, PGIC (LOCF)” value ([2]; 200 mg, 6 month) was 49.9% and the “Individual component responder rate, Pain (LOCF)” value ([2]; 200 mg, 6 month) was 35.4%. The “Pain composite responder rate … (BOCF)” value ([2]; 200 mg, 6 month) was 27.0%, the “Pain composite responder rate, Sensitivity Analysis II” value ([2]; 200 mg, 6 month) was 28.6% and the “Pain composite responder rate, Sensitivity Analysis III” value ([2]; 200 mg, 6 month) was 29.9%. For the same compound, the “Pain composite responder rate, Primary Analysis (LOCF)” value ([2]; 200 mg, 6 month, N = 441) was 32.2%, the “Acute (short-term) therapy for the symptom of pain in FMS” value ([3]; 100 mg BID) was “effective acute (short-term) therapy” and the “Effect on fatigue, mood, global wellness, and function, BID compared with QD dosing” value ([3]; BID vs QD, up to 200 mg/day) was “approximately equally effective”. The “Treating pain, twice-daily dosing compared with QD dosing” value ([3]; BID vs QD, up to 200 mg/day) was “more effective in treating pain than QD dosing”, the “PGIC: completers who reported an improvement in their overall status” value ([3]; both milnacipran treatment groups (BID and QD), up to 200 mg/day) was “over 70%” and the “PGIC: completers who reported worsening” value ([3]; milnacipran treatment groups, up to 200 mg/day) was 10%. For the same compound, the “Treatment of cognitive dysfunction associated with FMS (change in MASQ total score), comparison with placebo” value ([4]; 100 mg/day vs placebo) was “superior to placebo”, the “MASQ Total Score - Change from Baseline” value ([4]; 100 mg, treatment week 3) was −0.39 and the “MASQ Total Score - Change from Baseline” value ([4]; 100 mg, treatment week 7) was −0.34. The “MASQ Total Score - Change from Baseline” value ([4]; 100 mg, treatment week 11) was −1.33, the “MASQ Total Score - Change from Baseline” value ([4]; 100 mg, treatment week 15) was −1.18 and the “MASQ Total Score - Change from Baseline” value ([4]; 100 mg, treatment week 19) was −1.60. The “MASQ Total Score - Change from Baseline” value ([4]; 100 mg, treatment week 23) was −0.89, the “MASQ Total Score - Change from Baseline” value ([4]; 100 mg, treatment week 27) was −1.07 and the “Treatment of cognitive dysfunction associated with FMS (change in MASQ total score), 200 mg/day compared with 100 mg/day” value ([4]; 200 mg/day vs 100 mg/day) was “superior to milnacipran 100 mg/day”. The “Treatment of cognitive dysfunction associated with FMS (change in MASQ total score), comparison with placebo” value ([4]; 200 mg/day vs placebo) was “superior to placebo”, the “MASQ Total Score - Change from Baseline” value ([4]; 200 mg, treatment week 3) was −1.60 and the “MASQ Total Score - Change from Baseline” value ([4]; 200 mg, treatment week 7) was −1.77. For the same compound, the “MASQ Total Score - Change from Baseline” value ([4]; 200 mg, treatment week 11) was −1.73, the “MASQ Total Score - Change from Baseline” value ([4]; 200 mg, treatment week 15) was −1.76 and the “MASQ Total Score - Change from Baseline” value ([4]; 200 mg, treatment week 19) was −1.63. The “MASQ Total Score - Change from Baseline” value ([4]; 200 mg, treatment week 23) was −1.52 and the “MASQ Total Score - Change from Baseline” value ([4]; 200 mg, treatment week 27) was −1.89.
